Assay results from the NIST ThermoML archive (doi:10.1016/j.fluid.2012.10.024).

Assay: xn = mol fraction of the nth substance listed
Conditions: 101 kPa, Liquid, Vibrating tube method

OCc1ccccn1 [α-picolyl alcohol] + O
mass density [kg/m3]
Conditions | 293.15 K | 298.15 K | 303.15 K | 308.15 K | 313.15 K | 318.15 K
x1 = 0.05 | 1033.4 | 1031.7 | 1029.2 | 1027.6 | 1024.4 | 1021.6
x1 = 0.15 | 1077.3 | 1074.4 | 1071 | 1067.6 | 1064.5 | 1061.1
x1 = 0.2 | 1088.5 | 1085 | 1080.9 | 1076.8 | 1073.1 | 1069.3
x1 = 0.25 | 1098.1 | 1094 | 1089.6 | 1085.5 | 1081.6 | 1077.8
x1 = 0.3 | 1106.3 | 1102.9 | 1098.9 | 1095.1 | 1091.5 | 1087.9
x1 = 0.35 | 1112 | 1107.9 | 1103.4 | 1099.3 | 1095.4 | 1091.4
x1 = 0.4 | 1116 | 1111.7 | 1106.7 | 1102.3 | 1098.2 | 1094.5
x1 = 0.45 | 1119.8 | 1116.2 | 1111.9 | 1107.4 | 1103.6 | 1099.8
x1 = 0.5 | 1122.4 | 1118.9 | 1114.7 | 1110.8 | 1107 | 1103.2
x1 = 0.55 | 1124.4 | 1120.7 | 1116.3 | 1112.2 | 1108.3 | 1104.5
x1 = 0.6 | 1125.7 | 1122.1 | 1117.9 | 1113.9 | 1110 | 1106.3
x1 = 0.65 | 1127.5 | 1123.9 | 1119.8 | 1115.9 | 1112.1 | 1108.4
x1 = 0.7 | 1128.4 | 1124.8 | 1120.7 | 1116.9 | 1113.1 | 1109.5
x1 = 0.75 | 1129.3 | 1125.8 | 1121.7 | 1117.7 | 1114.1 | 1110.4
x1 = 0.8 | 1130.2 | 1126.7 | 1122.6 | 1118.7 | 1115 | 1111.2
x1 = 0.9 | 1131.5 | 1127.9 | 1123.9 | 1119.8 | 1116.1 | 1112.4
x1 = 0.95 | 1131.9 | 1128.3 | 1124.3 | 1120.3 | 1116.6 | 1112.9
x1 = 1 | 1132.3 | 1128.8 | 1124.7 | 1120.7 | 1116.9 | 1113.3

OCc1cccnc1 [β-picolyl alcohol] + O
mass density [kg/m3]
Conditions | 293.15 K | 298.15 K | 303.15 K | 308.15 K | 313.15 K | 318.15 K
x1 = 0.05 | 1032.8 | 1031.1 | 1028.7 | 1026.3 | 1024.1 | 1021.8
x1 = 0.1 | 1056.5 | 1054 | 1051.1 | 1048.2 | 1045.5 | 1042.8
x1 = 0.15 | 1074.5 | 1071.9 | 1068.7 | 1065.5 | 1062.5 | 1059.5
x1 = 0.2 | 1089.7 | 1086.6 | 1083.2 | 1079.8 | 1076.6 | 1073.3
x1 = 0.25 | 1098 | 1095 | 1091.4 | 1088 | 1084.7 | 1081.4
x1 = 0.3 | 1106.6 | 1103.4 | 1099.7 | 1096.2 | 1092.8 | 1089.5
x1 = 0.35 | 1111.4 | 1108.1 | 1104.4 | 1100.8 | 1097.4 | 1094
x1 = 0.4 | 1117 | 1113.7 | 1109.9 | 1106.3 | 1103 | 1099.4
x1 = 0.45 | 1120.5 | 1117.2 | 1113.5 | 1109.7 | 1106.4 | 1102.9
x1 = 0.5 | 1123.5 | 1120.3 | 1116.5 | 1112.8 | 1109.4 | 1106
x1 = 0.55 | 1125.9 | 1122.4 | 1118.6 | 1114.9 | 1111.6 | 1108.2
x1 = 0.6 | 1128 | 1124.7 | 1120.8 | 1117.3 | 1113.8 | 1110.4
x1 = 0.65 | 1129.7 | 1126.4 | 1122.5 | 1118.9 | 1115.5 | 1112.1
x1 = 0.7 | 1131.1 | 1127.8 | 1123.9 | 1120.3 | 1116.9 | 1113.5
x1 = 0.75 | 1132.3 | 1129 | 1125.2 | 1121.6 | 1118.1 | 1114.7
x1 = 0.8 | 1133.5 | 1130.1 | 1126.3 | 1122.7 | 1119.3 | 1115.9
x1 = 0.85 | 1134.5 | 1131.2 | 1127.4 | 1123.7 | 1120.3 | 1116.9
x1 = 0.9 | 1135.2 | 1131.8 | 1128.1 | 1124.5 | 1121.1 | 1117.7
x1 = 0.95 | 1136.1 | 1132.7 | 1128.9 | 1125.3 | 1122 | 1118.6
x1 = 1 | 1136.8 | 1133.5 | 1129.6 | 1125.9 | 1122.6 | 1119.3
